Values of other authors in US9326524B1, “Insect repellent compositions” (Nantucket Spider, LLC, priority 2014, dated 2016).

Test system: mosquitoes
Conditions: compared with naturally derived PMD in the form of OLE

In the case of CC1CCC(C(C)(C)O)C(O)C1 (stereo not shown) [Pure PMD, p-Menthane-3,8-diol], the “efficacy in repelling mosquitoes” value is given as “significantly less efficacious”.
